Measurements: US10759783B2, “Biaryl inhibitors of Bruton'S tyrosine kinase” (BIOGEN MA INC., priority 2013, dated 2020)
Where two headings read alike, the source gives them in different places.

What was measured:
[1] = biological target: T1, BTK enzyme (Homo sapiens, UniProt Q06187); experiment: In vitro BTK kinase assay: BTK-POLYGAT-LS assay; format: biochemical; conditions: ATP 10 μM, read-out: IC50 (10uMATP)
T1 construct: purchased Upstate 14-552
Summary of the method: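 Human BTK activity was measured with final 10 μM ATP and 100 nM polyGAT substrate in pH 7.5 Tris buffer with 10 mM MgCl2, DTT, Triton X-100 and casein.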

[2] = biological target: BTK (phospho-BTK) in human whole blood (Homo sapiens, UniProt Q06187); experiment: In vitro PD assay in human whole blood (pBTK assay)
BTK (phospho-BTK) in human whole blood, sequence (Q06187 whole entry): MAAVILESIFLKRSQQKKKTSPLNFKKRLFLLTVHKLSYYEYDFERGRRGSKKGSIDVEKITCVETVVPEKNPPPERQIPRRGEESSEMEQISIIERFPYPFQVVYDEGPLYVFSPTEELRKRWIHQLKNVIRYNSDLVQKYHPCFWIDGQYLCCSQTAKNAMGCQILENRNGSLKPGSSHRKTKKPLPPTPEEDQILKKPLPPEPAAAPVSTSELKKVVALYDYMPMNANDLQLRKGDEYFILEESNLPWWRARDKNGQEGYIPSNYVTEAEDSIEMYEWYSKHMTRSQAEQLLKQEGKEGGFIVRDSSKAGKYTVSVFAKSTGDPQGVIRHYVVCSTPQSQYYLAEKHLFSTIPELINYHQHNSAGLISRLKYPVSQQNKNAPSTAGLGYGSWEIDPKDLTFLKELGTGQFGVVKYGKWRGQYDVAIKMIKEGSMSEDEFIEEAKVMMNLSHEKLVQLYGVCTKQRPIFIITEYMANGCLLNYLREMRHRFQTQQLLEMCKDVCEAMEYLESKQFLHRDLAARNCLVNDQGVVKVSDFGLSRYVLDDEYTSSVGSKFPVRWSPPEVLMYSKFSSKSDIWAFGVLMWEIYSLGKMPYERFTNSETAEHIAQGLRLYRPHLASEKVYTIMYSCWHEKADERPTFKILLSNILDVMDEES

T1 sequence (Q06187 whole entry): as above

Compound	IC50 [1]	IC50 [2]	IC50 ([2]; read-out: pBTK IC50, human whole blood, 37° C. for 30 min)
Cc1cc(-c2ccnc(Nc3cnn(C4CCN(C)CC4)c3)n2)ccc1CN1Cc2nc(C(C)(C)C)sc2C1=O [Example I-289, 2-tert-butyl-5-[[2-methyl-4-[2-[[1-(1-methyl-4-piperidyl)pyrazol-4-yl]amino]pyrimidin-4-yl]phenyl]methyl]-4H-pyrrolo[3,4-d]thiazol-6-one]	< 10 nM	< 500 nM	–
Cn1cc(Nc2nccc(-c3ccc(CNC(=O)c4cnn(C(C)(C)C)c4)c(Cl)c3)n2)cn1 [Example I-291, 1-tert-butyl-N-[[2-chloro-4-[2-[(1-methylpyrazol-4-yl)amino]pyrimidin-4-yl]phenyl]methyl]pyrazole-4-carboxamide]	< 10 nM	< 500 nM	–
CC(C)n1cc(Nc2nccc(-c3ccc(CNC(=O)N4CCC(C(C)(C)C)C4)c(C(F)(F)F)c3)n2)cn1 (stereo not shown) [Example I-293, 3-tert-butyl-N-[[4-[2-[(1-isopropylpyrazol-4-yl)amino]pyrimidin-4-yl]-2-(trifluoromethyl)phenyl]methyl]pyrrolidine-1-carboxamide]	< 10 nM	< 500 nM	–
CC(C)(C)OC1CN(C(=O)NCc2ccc(-c3ccnc(Nc4cnn(C5CC5)c4)n3)cc2C(F)(F)F)C1 [Example I-294, 3-tert-butoxy-N-[[4-[2-[(1-cyclopropylpyrazol-4-yl)amino]pyrimidin-4-yl]-2-(trifluoromethyl)phenyl]methyl]azetidine-1-carboxamide]	< 10 nM	< 500 nM	–
CCn1cc(Nc2nccc(-c3ccc(CNC(=O)N4CCC(C(C)(C)C)C4)c(C(F)(F)F)c3)n2)cn1 (stereo not shown) [Example I-297, 3-tert-butyl-N-[[4-[2-[(1-ethylpyrazol-4-yl)amino]pyrimidin-4-yl]-2-(trifluoromethyl)phenyl]methyl]pyrrolidine-1-carboxamide]	< 10 nM	< 500 nM	–
CC(C)OC1CN(C(=O)NCc2ccc(-c3ccnc(Nc4cnn(C(C)C)c4)n3)cc2C(F)(F)F)C1 [Example I-299, 3-isopropoxy-N-[[4-[2-[(1-isopropylpyrazol-4-yl)amino]pyrimidin-4-yl]-2-(trifluoromethyl)phenyl]methyl]azetidine-1-carboxamide]	< 10 nM	< 500 nM	–
CC(C)OC1CN(C(=O)NCc2ccc(-c3ccnc(Nc4cnn(CCO)c4)n3)cc2C(F)(F)F)C1 [Example I-301, N-[[4-[2-[[1-(2-hydroxyethyl)pyrazol-4-yl]amino]pyrimidin-4-yl]-2-(trifluoromethyl)phenyl]methyl]-3-isopropoxy-azetidine-1-carboxamide]	< 10 nM	< 500 nM	–
Cc1cc(-c2ccnc(Nc3cnn(C4CCN(C)CC4)c3)n2)ccc1CNC(=O)N1CC(OC(C)(C)C)C1 [Example I-302, 3-tert-butoxy-N-[[2-methyl-4-[2-[[1-(1-methyl-4-piperidyl)pyrazol-4-yl]amino]pyrimidin-4-yl]phenyl]methyl]azetidine-1-carboxamide]	< 10 nM	< 500 nM	–
COCCn1cc(Nc2nccc(-c3ccc(CNC(=O)N4CCC(C(C)(C)C)C4)c(C)c3)n2)cn1 (stereo not shown) [Example I-303, 3-tert-butyl-N-[[4-[2-[[1-(2-methoxyethyl)pyrazol-4-yl]amino]pyrimidin-4-yl]-2-methyl-phenyl]methyl]pyrrolidine-1-carboxamide]	< 10 nM	< 500 nM	–
COCCn1cc(Nc2nccc(-c3ccc(CNC(=O)N4CC(OC(C)(C)C)C4)c(C)c3)n2)cn1 [Example I-304, 3-tert-butoxy-N-[[4-[2-[[1-(2-methoxyethyl)pyrazol-4-yl)amino]pyrimidin-4-yl]-2-methyl-phenyl]methyl]azetidine-1-carboxamide]	< 10 nM	< 500 nM	–
Cc1cc(-c2ccnc(Nc3cnn(C(C)C)c3)n2)ccc1CNC(=O)N1CC(OC(C)(C)C)C1 [Example I-306, 3-tert-butoxy-N-[[4-[2-[(1-isopropylpyrazol-4-yl)amino]pyrimidin-4-yl]-2-methyl-phenyl]methyl]azetidine-1-carboxamide]	< 10 nM	–	< 500 nM
Cc1cc(-c2ccnc(Nc3cnn(C)c3)n2)ccc1CNC(=O)N1CC(OCCF)C1 [Example I-307, 3-(2-fluoroethoxy)-N-[[2-methyl-4-[2-[(1-methylpyrazol-4-yl)amino]pyrimidin-4-yl]phenyl]methyl]azetidine-1-carboxamide]	< 10 nM	< 500 nM	–
Cc1cc(-c2ccnc(Nc3cnn(C4CC4)c3)n2)ccc1CNC(=O)N1CCC(C(C)(C)C)C1 (stereo not shown) [Example I-308, 3-tert-butyl-N-[[4-[2-[(1-cyclopropylpyrazol-4-yl)amino]pyrimidin-4-yl]-2-methyl-phenyl]methyl]pyrrolidine-1-carboxamide]	< 10 nM	< 500 nM	–
Cc1cc(-c2ccnc(Nc3cnn(C(C)(C)C(=O)NCC(F)(F)F)c3)n2)ccc1CNC(=O)N1CC(OC(C)C)C1 [Example I-312, N-[[4-[2-[[1-[1,1-dimethyl-2-oxo-2-(2,2,2-trifluoroethylamino)ethyl]pyrazol-4-yl]amino]pyrimidin-4-yl]-2-methyl-phenyl]methyl]-3-isopropoxy-azetidine-1-carboxamide]	< 10 nM	< 500 nM	–
CC(C)OC1CN(C(=O)NCc2ccc(-c3ccnc(Nc4cnn([C@H]5CCOC5)c4)n3)cc2C(F)(F)F)C1 [Example I-313, 3-isopropoxy-N[[4-[2-[[1-[(3S)-tetrahydrofuran-3-yl]pyrazol-4-yl]amino]pyrimidin-4-yl]-2-(trifluoromethyl)phenyl]methyl]azetidine-1-carboxamide]	< 10 nM	< 500 nM	–
CC(C)OC1CN(C(=O)NCc2ccc(-c3ccnc(Nc4cnn([C@@H]5CCOC5)c4)n3)cc2C(F)(F)F)C1 [Example I-314, 3-isopropoxy-N-[[4-[2-[[1-[(3R)-tetrahydrofuran-3-yl]pyrazol-4-yl]amino]pyrimidin-4-yl]-2-(trifluoromethyl)phenyl]methyl]azetidine-1-carboxamide]	< 10 nM	< 500 nM	–

Now from value to compound, other results behind:

IC50 [1]	IC50 [2]	Compound	IC50 ([2]; read-out: pBTK IC50, human whole blood, 37° C. for 30 min)
< 10 nM	< 500 nM	Cc1cc(-c2cc(Nc3cc4n(n3)CCOC4)ncn2)ccc1CNC(=O)N1CCC(C(C)(C)C)C1 (stereo not shown) [Example I-288, 3-tert-butyl-N-[[4-[6-(6,7-dihydro-4H-pyrazolo[5,1-c][1,4]oxazin-2-ylamino)pyrimidin-4-yl]-2-methyl-phenyl]methyl]pyrrolidine-1-carboxamide]	–
< 10 nM	< 500 nM	Cc1cc(-c2ccnc(Nc3cnn(C4CCC(C(=O)O)CC4)c3)n2)ccc1CNC(=O)c1cnn(C(C)(C)C)c1 (stereo not shown) [Example I-292, 4-[4-[[4-[4-[[(1-tert-butylpyrazole-4-carbonyl)amino]methyl]-3-methyl-phenyl]pyrimidin-2-yl]amino]pyrazol-1-yl]cyclohexanecarboxylic acid]	–
< 10 nM	< 500 nM	COCCn1cc(Nc2nccc(-c3ccc(CNC(=O)N4CCC(C(C)(C)C)C4)c(C(F)(F)F)c3)n2)cn1 (stereo not shown) [Example I-295, 3-tert-butyl-N-[[4-[2-[[1-(2-methoxyethyl)pyrazol-4-yl]amino]pyrimidin-4-yl]-2-(trifluoromethyl)phenyl]methyl]pyrrolidine-1-carboxamide]	–
< 10 nM	< 500 nM	CC(C)(C)C1CCN(C(=O)NCc2ccc(-c3ccnc(Nc4cnn(C5CC5)c4)n3)cc2C(F)(F)F)C1 (stereo not shown) [Example I-296, 3-tert-butyl-N-[[4-[2-[(1-cyclopropylpyrazol-4-yl)amino]pyrimidin-4-yl]-2-(trifluoromethyl)phenyl]methyl]pyrrolidine-1-carboxamide]	–
< 10 nM	< 500 nM	CN1CCC(n2cc(Nc3nccc(-c4ccc(CNC(=O)N5CCC(C(C)(C)C)C5)c(C(F)(F)F)c4)n3)cn2)CC1 (stereo not shown) [Example I-298, 3-tert-butyl-N-[[4-[2-[[1-(1-methyl-4-piperidyl)pyrazol-4-yl]amino]pyrimidin-4-yl]-2-(trifluoromethyl)phenyl]methyl]pyrrolidine-1-carboxamide]	–
10 to 99 nM	< 500 nM	COC1CN(C(=O)NCc2ccc(-c3ccnc(Nc4cnn(C)c4)n3)cc2C)C1 [Example I-300, 3-methoxy-N-[[2-methyl-4-[2-[(1-methylpyrazol-4-yl)amino]pyrimidin-4-yl]phenyl]methyl]azetidine-1-carboxamideacid]	–
< 10 nM	< 500 nM	CCn1cc(Nc2nccc(-c3ccc(CNC(=O)N4CCC(C(C)(C)C)C4)c(C)c3)n2)cn1 (stereo not shown) [Example I-305, 3-tert-butyl-N-[[4-[2-[(1-ethylpyrazol-4-yl)amino]pyrimidin-4-yl]-2-methyl-phenyl]methyl]pyrrolidine-1-carboxamide]	–
< 10 nM	< 500 nM	Cc1cc(-c2cc(Nc3cc4n(n3)CCN(C)C4)ncn2)ccc1CN1CCc2c(cnn2C(C)(C)C)C1=O [Example I-309, 1-tert-butyl-5-[[2-methyl-4-[6-[(5-methyl-6,7-dihydro-4H-pyrazolo[1,5-a]pyrazin-2-yl)amino]pyrimidin-4-yl]phenyl]methyl]-6,7-dihydropyrazolo[4,3-c]pyridin-4-one]	–
< 10 nM	< 500 nM	CC(C)CN1CCN(Cc2ccc(-c3ccnc(Nc4cnn(CCO)c4)n3)cc2C(F)(F)F)C(=O)C1 [Example I-310, 1-[[4-[2-[[1-(2-hydroxyethyl)pyrazol-4-yl]amino]pyrimidin-4-yl]-2-(trifluoromethyl)phenyl]methyl]-4-isobutyl-piperazin-2-one]	–
< 10 nM	< 500 nM	CN1CC(n2cc(Nc3nccc(-c4ccc(CNC(=O)N5CCC(C(C)(C)C)C5)c(C(F)(F)F)c4)n3)cn2)C1 (stereo not shown) [Example I-311, 3-tert-butyl-N-[[4-[2-[[1-(1-methylazetidin-3-yl)pyrazol-4-yl]amino]pyrimidin-4-yl]-2-(trifluoromethyl)phenyl]methyl]pyrrolidine-1-carboxamide]	–
